Test results as given in a melting point compilation (Tetko et al.; mined from patent text by program, amines drawn as free bases though some values may be those of a salt).

Structure (SMILES)	melting point
Nc1ccc(C(=O)N2Cc3ccccc3CC3=C2C=CC(Cl)C3)cc1 (centres undefined)	211 to 214 °C
CCOC(=O)c1c(C(F)(F)F)nc(C(F)(F)F)c(C)c1OCC(=O)c1ccccc1	95 to 97 °C
O=S(=O)(NN1CCCCC1)c1ccc(S)cc1	93 °C
CCCCc1oc2ccccc2c1C(=O)Nc1ccc2cc(OCC#N)ccc2c1	122 to 124 °C
CC(C)C(C)(C)NC(N)=O	175 to 176 °C
Cc1cccc(NC(=O)c2nc(-c3ccccc3)c3ccccc3c2O)n1	261 to 263 °C
COc1ccc(C(=O)CBr)c(F)c1	67 to 69 °C
O=C(O)c1ccc(-c2ccc(-c3ccc(C(F)(F)F)cc3)o2)cc1	270 to 271 °C
C=CCSc1nc2cc(C)c(C)cc2[nH]1	119 to 120 °C
Nc1nc(=O)c2ccccc2n1Cc1ccc(F)cc1	170 °C
COc1ccc(Cn2c(=O)n([C@H]3CC[C@H](O)CC3)c3ncc(C(F)(F)F)cc32)cc1OC	128 to 130 °C
CCCc1ccccc1OCCCOc1ccc2c(=O)cc(C(=O)O)oc2c1	164 to 166 °C
COC(=O)c1ccc(CC(C)NCC(O)c2ccc(O)c(CO)c2)c(OC)c1 (centres undefined)	96 to 105 °C
c1ccc2c(c1)CC(CN1CCN(c3ccc4ccoc4c3)CC1)C2	168 to 170 °C
O=C1Nc2ccc(Cl)cc2C1(O)c1cccc2c1OCO2 (centres undefined)	271 °C
Cc1nc(-c2cnc(Cc3ccccc3)o2)sc1C(=O)NCc1ccccc1	141 to 142 °C
OCc1cccc(/C=C/c2ccccc2)c1	87 to 88 °C
CC(=NO)c1ccc2nnn(Cc3ccc4ncccc4c3)c2n1	259 to 261 °C
CC[C@H]1[C@@H](O)C(F)(F)C(=O)N1c1ccc(C#N)c(Cl)c1	137 to 140 °C

Structure (SMILES)	melting point
CC(C)/[N+]([O-])=C/c1ccccc1O	36 to 39 °C
CCN(CC)CCOc1ccc(Nc2ncc3c(n2)N(C)C(=O)N(c2ccccc2Br)C3)cc1	144 °C
O=C(Cc1cc(F)cc(F)c1)Nc1ccc(NCc2ccc(F)cc2)nc1N1CCOCC1	196 to 198 °C
[O-][N+]1=C(c2ccccc2F)c2cc(Cl)ccc2-n2cnc(N3CCOCC3)c2C1	200 to 203 °C
COc1ccc2[nH]cc(C3=CCC4(CC3)OCCO4)c2c1	161 to 162 °C
CC1Cc2cc3c(cc2C(c2ccc([N+](=O)[O-])cc2)=NN1C(=O)CCCN)OCO3 (centres undefined)	110 to 112 °C
CCCCOCCOc1ccc(-c2ccc(N(C)Cc3cnn(C)c3)c(C=CC(=O)O)c2)cc1	125 to 127 °C
Cc1ccc(COc2cccc(/C=C/c3ccc(CN4CCCCC4)cc3)c2)cc1	87 to 88 °C
CC(=O)c1ccc(OCn2cc(Cl)cnc2=O)cc1	182 °C
CCOc1ccc(Nc2n[nH]c(N)c2C#N)cc1	166 to 167 °C
CCOP(=O)(CC(=O)Nc1cc2c(Nc3ccc(Br)c(Br)c3)ncnc2cn1)OCC	120 to 124 °C
O=C(O)Cc1cc2c(c([N+](=O)[O-])c1)NC(C(F)(F)F)CC2 (centres undefined)	177 to 178 °C
CCCCCCCCCCCCCCOc1ccc(CC(CO)CC2(C)OCCO2)cc1 (centres undefined)	28 to 29 °C
COC(=O)c1cccn1-c1cc2[nH]c(=O)c(=O)n(C3CCCCC3)c2cc1[N+](=O)[O-]	211 to 212 °C
NCCSc1ccc(CCC(=O)O)cc1	90 to 110 °C
CCCCCCc1ccc(NC2=NCCS2)cc1	77 to 79 °C
CC(C)(C)OC(=O)Cc1c(Cl)nc(N)nc1C#N	107 to 109 °C
CC(C)(C(=O)COc1cccc2ccccc12)C1OCCO1	69 °C
O=C(O)C1Cc2c(ncn2Cc2ccccc2)CN1C(=O)C(c1ccccc1)c1ccccc1 (centres undefined)	167 to 169 °C

Structure (SMILES)	melting point
CCOCC(COCC)Oc1ccc(/C=C/CO)c(Oc2ncc(C(F)(F)F)cc2Cl)c1	52.5 to 54.5 °C
Cc1cc2nc(OC(C)C)nc(-c3cccc(C(F)(F)F)c3)c2s1	106 °C
CC(=CCO)c1ccc(-c2ccccc2)cc1	112 to 114 °C
CCc1ccc(-c2ccc(C(=O)Nc3ccc4cc(CN5CCCC5)cnc4c3C)cc2)cc1	189 to 190 °C
Cc1nc2c(s1)-c1nc(N)ncc1CC2	241 to 243 °C
N#CC(C#N)=C1c2ccccc2-c2c(C(=O)OCCc3ccccc3)cccc21	115 to 117 °C
CC(=O)OCC(=O)Nc1ccc(-c2nc(C(=O)Nc3nccs3)c(-c3ccc(C)cc3)[nH]2)cc1	> 250 °C
COC(=O)c1c(C)nc2cc(OC)c(OC)cc2c1-c1ccnc(Cl)c1	145 to 147 °C
O=C(NS(=O)(=O)C(F)(F)F)c1cccc([N+](=O)[O-])c1	80 to 83 °C
COc1ccc(C2CNC(=O)C2)cc1OCC(O)CN1CCN(c2ccccc2)CC1 (centres undefined)	143 to 144 °C
O=C(Nc1cc(Cl)c(O)c(Cl)c1)c1cc(F)ccc1O	227 to 229 °C
COc1ccc(C(=O)c2ccc(Oc3ccc(Cl)cc3)cn2)cc1OC	145 to 147 °C
C=C(c1ccc(N(C(=O)c2c(I)cccc2C(N)=O)C(C)C)c(C)c1)C(F)(F)F	201 to 203 °C
CCNC(=O)c1c([Si](C)(C)C)ccc(OC)c1Cl	136 to 137 °C
CCS(=O)(=O)Nc1cc(-n2c(=O)cc(C(F)(F)F)n(N)c2=O)c(F)cc1C#N	190 °C
Cc1cccc(CC(=O)c2ccnc(Br)c2)n1	126 °C
CC1CCCC1(O)c1ccc(C#N)c2ccccc12 (centres undefined)	121 to 122 °C
CCCC(NS(=O)(=O)c1ccc(Cl)cc1)C(=O)Nc1ccc(CC(=O)OCC)cc1 (racemic)	93 to 95 °C

The remaining lines, values ahead:

melting point	Structure (SMILES)
180 to 182 °C	NC(=O)c1nccc(-c2ccc(Oc3ccc(F)cc3)cc2)n1
171 to 176 °C	Cc1oc2ccccc2c1C(=O)O
268 °C	COc1ccccc1-c1nc2nc(SC)nnc2c(=O)[nH]1
232 to 243 °C	COc1cc2c(cc1Nc1ncc(Cl)c(Nc3cc(C(N)=O)ccc3OC)n1)CCN(CCS(C)(=O)=O)CC2
156 to 158 °C	O=C(Nc1ccc2ccc(-c3ccc(Cl)cc3)nc2n1)c1ccccc1
156 to 158 °C	CCOC(=O)c1ccc(NC(=O)c2ccc(OCCCCc3ccccc3)cc2)c(O)c1
81 to 83 °C	Cc1cc(Oc2cccc(C(F)(F)F)c2)nn1C(=O)Nc1cc(OC2CCCC2)c(Cl)cc1F
230 to 232 °C	O=C(O)CCC1(CCC(=O)O)CCCCC(CCC(=O)O)(CCC(=O)O)C1=O
263 to 265 °C	CS(=O)(=O)Nc1c(O)ccc2c1CCCC2C1=NCCN1 (centres undefined)
118 to 120 °C	CC1Cc2cc(Cl)ccc2C(c2ccc([N+](=O)[O-])cc2)O1 (centres undefined)
30 to 31 °C	CCCCCCCCCCCC(=O)OCC(COCc1ccccc1)OC(=O)CCCCCCCCCCC (centres undefined)
134 to 139 °C	NC(=O)CCCCc1c[nH]c2ccccc12
121 to 123 °C	COC(=O)COc1cc(C(=O)OC)nc2ccccc12
40 °C	Cc1csc2c1CCN(C)CC2c1ccccc1 (centres undefined)
214 to 217 °C	CCOC(OCC)c1nc(N)nc(N)c1-c1cccc(Cl)c1Cl
60 to 62 °C	CCCCCCCCCCCCCCCCC(C)c1cccc2c1OC(=O)C2c1ccccc1 (centres undefined)
100 to 102 °C	Cc1cncn1Cc1nc2ccccc2n1-c1ccccc1
96 to 97 °C	Cc1cccc(CC(=O)O)c1OCCCc1cn(-c2ccc(C(F)(F)F)nn2)nc1C(C)(C)C
262 to 263 °C	CC(C)(C)c1ccc(-c2ccc3c(C(N)=O)nn(-c4ccc(S(N)(=O)=O)cc4)c3c2)cc1
55 to 57 °C	CC(C)Oc1cc(N)ccc1-n1cccc1
150 °C	Cc1nc2c(O)cccn2c(=O)c1CCO
136 to 138 °C	COc1ccc(N2N=C3c4cc(C)sc4CCCC3CC2=O)cc1 (centres undefined)
65 to 68 °C	O=C1c2ccccc2CN1C1CCN(CCC2c3ccccc3-c3ccccc32)CC1
275 to 276 °C	Clc1cccc(Nc2ncnc3[nH]nc(N4CCOCC4)c23)c1

melting point	Structure (SMILES)
146 to 147 °C	NC(=O)c1ccc(Cl)c(Br)c1
172 to 174 °C	O=c1c(Br)c(OCc2ccc(F)c(F)c2)ccn1Cc1cccc(F)c1
98 to 100 °C	C#CC(C)(C)c1cc(N)no1
91 to 92.5 °C	CCOP(C)(=O)COS(=O)(=O)c1ccccc1C(F)(F)F (centres undefined)
173 to 175 °C	NS(=O)(=O)c1cccc2c1CC(=O)CC2
226 to 229 °C	CC(C)(C)OC(=O)N1CCc2ccc3ccn(CCO)c3c2CC1
140 to 141 °C	CCCCCCCCC(=O)Nc1cc([N+](=O)[O-])ccc1O
159 to 160 °C	O=c1nc(N2CCc3ccccc3C2)sc2ncccc12
155 to 156 °C	Cc1nn(-c2ccccc2)cc1C(=O)Nc1ccc(OCC(C)(C)C)c(C#N)c1
80 to 82 °C	COc1ccc(Cn2c(=O)c3cccnc3n(CCCCBr)c2=O)cc1
146 to 148 °C	CC(C)c1nn(-c2ccc(C(F)(F)F)cn2)cc1CCCOc1c(CC(=O)O)cnn1C
126 to 127 °C	O=C(O)CCCNc1cc(Oc2ccc(C(F)(F)F)cc2Cl)ccc1[N+](=O)[O-]
101 to 108 °C	COc1nc(Cc2ccccc2NS(=O)(=O)C(F)(F)F)nc(OC)n1
156 to 157 °C	N#CC(C(N)=O)c1ccc(F)c(Cl)c1 (centres undefined)
148 to 150 °C	O=C(O)c1nc(CCCc2ccccc2)c[nH]1
157 to 158 °C	NC(=O)c1ccccc1N1CCN(CC[C@H]2OCCc3ccccc32)CC1
204 to 205 °C	CC(C)(C)OC(=O)COc1ccc(-c2c(Cl)c(CN3C(=O)CCC3=O)nc3sc4c(c23)CCS(=O)(=O)C4)cc1
244 to 246 °C	Cc1[nH]cnc1CC1CCc2c(C)c3cc(Cl)ccc3n2C1=O (centres undefined)
182 to 189 °C	CN1CCN(CC2COc3cc4ncnc(Nc5cccc(Br)c5)c4cc3O2)CC1 (centres undefined)
105 to 106 °C	NN(Cc1ccccc1[N+](=O)[O-])c1ccc(Cl)cc1
192 to 193 °C	NC(=O)COc1ncc(Cl)c(N)c1Cl
193 to 195 °C	NC(=O)c1nc(C2OC(CO)C(O)C2O)n[nH]1 (centres undefined)
66 to 67.5 °C	CCNC(=C[N+](=O)[O-])SC
173 °C	O=C(Nc1ccc2ccc(Cl)nc2n1)N1CC=CCC1
